The values below come from ChEMBL document CHEMBL4033787, “Glutathione S-Transferase π-Activatable O2-(Sulfonylethyl Derived) Diazeniumdiolates Potently Suppress Melanoma in Vitro and in Vivo” (J Med Chem, 2018).

Molecules are shown by their SMILES. Activity calls are given as the source filed them. The rule behind the calls is not given here.

Data set [1] relates to B16. Description: Antiproliferative activity against mouse B16 cells at 1 uM after 72 hrs by MTT assay. Format: functional, cell-based.
The test system of the next data set is HT-29. Description: Antiproliferative activity against human HT-29 cells at 1 uM after 72 hrs by MTT assay. Format: functional, cell-based. Background: Tetrazolium dyes change colour on reduction, which living cells bring about.
In data set [2] the test system is MCF7. Description: Antiproliferative activity against human MCF7 cells at 1 uM after 72 hrs by MTT assay. The class given is functional, cell-based.
The next data set has as its system 9L-2. Description: Antiproliferative activity against rat 9L-2 cells at 1 uM after 72 hrs by MTT assay. Format: functional, cell-based.
Data set [3] deals with B16. The data set is described as follows: Antiproliferative activity against mouse B16 cells after 72 hrs by MTT assay. The following applies: B16, 72 h. The class given is functional, cell-based.
Data set [4] relates to MCF7. Description: Antiproliferative activity against human MCF7 cells after 72 hrs by MTT assay. The class given is functional, cell-based. The following applies: MCF7, 72 h.
The nature of data set [5]: Substrate activity at GST-Pi in mouse JB6 Cl 30-7b cells assessed as NO release at 20 uM after 8 hrs by Griess assay. The class given is ADME, cell-based. A general note: Nitrite, measured by Griess reagent, commonly stands in for NO production.
For data set [6], the system named is B16. Description: Antiproliferative activity against mouse B16 cells after 72 hrs in presence of equimolar concentration of (S)-2-amino-5-((R)-1-(carboxymethylamino)-1-oxo-3-(vinylsulfonyl)propan-2-ylamino)-5-oxopentanoic acid by MTT assay. The class given is functional, cell-based. The following applies: B16, 72 h.
Data set [7] relates to B16. The data set is described as follows: Antiproliferative activity against mouse B16 cells after 72 hrs in presence of equimolar concentration of 4-hydroxy-1-(oxido-NNO-azoxy)piperidine by MTT assay. The class given is functional, cell-based. The following applies: B16, 72 h.
Data set [8] concerns B16. Description: Induction of nitration of mitochondrial cytochrome C in mouse B16 cells assessed as increase in nitrated cytochrome C levels at 10 uM after 24 hrs in presence of NO scavenger hemoglobin by Western blot analysis. The class given is functional, cell-based.
A short description of data set [9]: Antiproliferative activity against mouse JB6 Cl 30-7b cells after 72 hrs by MTT assay. The class given is cell-based.
A short description of data set [10]: Selectivity index, ratio of IC50 for mouse JB6 Cl 30-7b cells to IC50 for mouse B16 cells. The class given is functional.
Data set [11] can be described thus: Substrate activity at GST-Pi in mouse B16 cells assessed as increase in NO release after 8 hrs by DAF-FM DA dye-based flow cytometric analysis. Format: ADME, cell-based. Background: In flow cytometry, cells or beads pass a laser one at a time.
Data set [12] in a line: Substrate activity at GST-Pi in mouse B16 cells assessed as increase in NO release at 20 uM by Griess assay. Format: ADME, cell-based. The following applies: TDE = time-dependent effect.
The subject of data set [13] is B16. The data set is described as follows: Antiproliferative activity against mouse B16 cells at 3 uM after 24 hrs in presence of NO scavenger hemoglobin by MTT assay. Format: functional, cell-based.
For data set [14], the system named is B16. The data set is described as follows: Antiproliferative activity against mouse B16 cells at 3 uM after 24 hrs in presence of NO scavenger carboxy-PTIO by MTT assay. The class given is functional, cell-based.
Data set [15] has as its system B16. Description: Antiproliferative activity against mouse B16 cells at 3 uM after 24 hrs in presence of GST-Pi inhibitor etacrynic acid by MTT assay. The class given is functional, cell-based.
The nature of data set [16]: Drug metabolism assessed as GST-Pi (unknown origin)-mediated compound decomposition at 40 uM by UV spectrophotometric analysis. Format: ADME. The following applies: human, TDE = time-dependent effect.
Data set [17] is described as follows: Drug metabolism assessed as GSTalpha (unknown origin)-mediated compound decomposition at 40 uM by UV spectrophotometric analysis. The class given is ADME. The following applies: human.
For data set [18], the system named is B16. Description: Antitumor activity against mouse B16 cells implanted in iv dosed nude mouse assessed as reduction in tumor volume administered every other day for 20 days. The class given is functional, organism-based.
Data set [19] concerns B16. Description: Antitumor activity against mouse B16 cells implanted in iv dosed nude mouse assessed as reduction in tumor weight administered every other day for 20 days. Format: functional, organism-based.
Data set [20] concerns B16. The data set is described as follows: Induction of nitration of mitochondrial cytochrome C in mouse B16 cells assessed as increase in nitrated cytochrome C levels at 10 uM after 24 hrs by Western blot analysis. Format: functional, cell-based.
For data set [21], the system named is B16. Description: Antitumor activity against mouse B16 cells implanted in nude mouse assessed as inhibition of tumor growth at 15 mg/kg, iv administered every other day for 20 days relative to control. The class given is functional. The following applies: 480 h, read-out: TGI.
The subject of data set [22] is B16. The data set is described as follows: Antitumor activity against mouse B16 cells implanted in nude mouse assessed as inhibition of tumor growth at 7.5 mg/kg, iv administered every other day for 20 days relative to control. Format: functional. The following applies: 480 h, read-out: TGI.
The test system of data set [23] is B16. The data set is described as follows: Antitumor activity against mouse B16 cells implanted in nude mouse assessed as inhibition of tumor growth at 30 mg/kg, iv administered every other day for 20 days relative to control. The class given is functional. The following applies: 480 h, read-out: TGI.
In data set [24] the test system is Mus musculus. The data set is described as follows: Toxicity in mouse assessed as mortality at 7.5 to 30 mg/kg, iv dosed for every other day for 20 days. The class given is organism-based. The following applies: in vivo, 480 h.
Data set [25] has as its system Mus musculus. Description: Toxicity in mouse assessed as weight loss at 7.5 to 30 mg/kg, iv dosed for every other day for 20 days. The class given is organism-based. The following applies: in vivo, 480 h.
Data set [26] concerns B16. The data set is described as follows: Induction of nitration of mitochondrial cytochrome C in mouse B16 cells implanted in iv dosed mouse assessed as increase in nitrated cytochrome C levels administered every other day for 20 days by Western blot analysis. Format: functional, organism-based.
The nature of data set [27]: Stability of compound in normal saline after 500 mins by UV spectrophotometric analysis. Format: physicochemical. The following applies: buffer.

For `CCOC(=O)N1CCN(/[N+]([O-])=N/OCCS(=O)(=O)C[C@H](NC(=O)CC[C@H](N)C(=O)O)C(=O)NCC(=O)O)CC1`, the result in the data set on B16 [1], in the data set on HT-29 and in the data set with MCF7 [2] was Active. Moreover, the result in the data set with 9L-2 was inactive.

In the case of `CCOC(=O)N1CCN(/[N+]([O-])=N/Oc2ccc([N+](=O)[O-])cc2[N+](=O)[O-])CC1`, the IC50 came to 1340 nM in the data set with B16 [3] and 993 nM in the data set with MCF7 [4]. For the same compound, the Drug metabolism entry in data set [5] is reported as “Metabolite_Notdetected”.

Regarding `[O-]/[N+](=N\O)N1CCC(O)CC1`, the IC50 in the data set with B16 [3] turned out to be 928 nM; in the data set on B16 [6], 553 nM.

`N[C@@H](CCC(=O)N[C@@H](CS(=O)(=O)CCO/N=[N+](\[O-])N1CCCC1)C(=O)NCC(=O)O)C(=O)O`: the result in the data set with B16 [1], with HT-29 and with MCF7 [2] was Active. The outcome in the data set on 9L-2 was inactive.

For the compound `C=CS(=O)(=O)C[C@H](NC(=O)CC[C@H](N)C(=O)O)C(=O)NCC(=O)O`, the IC50 turned out to be 1910 nM in the data set on B16 [3] and 553 nM in the data set with B16 [7]. Also, the outcome in the data set with B16 [8] was inactive.

As to `COC(=O)CNC(=O)[C@H](CS(=O)(=O)CCO/N=[N+](\[O-])N(CCCl)CCCl)NC(=O)CC[C@H](N)C(=O)OC`, the result with B16 [1], with HT-29 and in the data set with MCF7 [2] was Active. In the data set on 9L-2, the result was inactive.

Consider `N[C@@H](CCC(=O)N[C@@H](CS(=O)(=O)CCOP(=O)(N(CCCl)CCCl)N(CCCl)CCCl)C(=O)N[C@@H](C(=O)O)c1ccccc1)C(=O)O` [CANFOSFAMIDE], for which the IC50 in the data set on B16 [3] was 710 nM; in the data set with MCF7 [4], 870 nM.

Take `CCOC(=O)N1CCN(/[N+]([O-])=N/OCCS(=O)(=O)C[C@H](NC(=O)CC[C@H](N)C(=O)OC)C(=O)NCC(=O)OC)CC1`: the result in the data set with B16 [1], with HT-29 and in the data set with MCF7 [2] was Active. Besides, the result in the data set on 9L-2 was inactive. Further, the values for the IC50 with B16 [3] and in the data set with MCF7 [4] were 195 nM and 338 nM, respectively.

`N[C@@H](CCC(=O)N[C@@H](CS(=O)(=O)CCO/N=[N+](\[O-])N(CCCl)CCCl)C(=O)NCC(=O)O)C(=O)O`: the result with B16 [1], in the data set on HT-29 and in the data set on MCF7 [2] was Active. Further, the outcome with 9L-2 was inactive. Further, the figures for the IC50 in the data set with B16 [3] and in the data set with MCF7 [4] were 404 nM and 611 nM, respectively.

For the compound `CCOC(=O)CNC(=O)[C@H](CS(=O)(=O)CCO/N=[N+](\[O-])N(CCCl)CCCl)NC(=O)CC[C@H](N)C(=O)OCC`, the result in the data set with B16 [1], with HT-29 and in the data set with MCF7 [2] was Active. The result with 9L-2 was inactive.

Regarding `N[C@@H](CCC(=O)N[C@@H](CS(=O)(=O)CCO/N=[N+](\[O-])N1CCC(O)CC1)C(=O)NCC(=O)O)C(=O)O`, the result in the data set with B16 [1], in the data set on HT-29, with MCF7 [2], in the data set with B16 [20] and in the data set on B16 [8] was Active. Moreover, the outcome with 9L-2, in the data set on B16 [13], with B16 [14] and with B16 [15] was inactive. For the same compound, the IC50 in the data set on B16 [3] came to 184 nM; with MCF7 [4], 306 nM; in data set [9], 1400 nM. Also, the “Ratio IC50” value in data set [10] was determined as 8. Also, the Drug metabolism result is recorded as “Dose-dependent effect” in data set [11]; “Tde” in data set [12]; “Metabolite_Notdetected” in [5]; “Tde” in data set [16]; “Metabolite_Notdetected” in data set [17]. Besides, the Activity result was “Dose-dependent effect” in the data set on B16 [18]; “Dose-dependent effect” in the data set on B16 [19]; “Non-Toxic” in the data set on Mus musculus [24]; “Non-Toxic” with Mus musculus [25]; “Dose-dependent effect” in the data set on B16 [26]. Moreover, the inhibition in vivo at 15 mg/kg in the data set on B16 [21] stood at 76.2%. The inhibition in vivo at 7.5 mg/kg with B16 [22] is 42.3%. The inhibition in vivo at 30 mg/kg in the data set on B16 [23] worked out at 84.8%. Also, the Stability entry in data set [27] is “Stable”.

As for `CN(C)/N=N/c1[nH]cnc1C(N)=O` [DACARBAZINE], the inhibition in vivo at 15 mg/kg with B16 [21] stood at 49.9%.

In the case of `N[C@@H](CCC(=O)N[C@@H](CS(=O)(=O)CCO/N=[N+](\[O-])N1CCCC1CO)C(=O)NCC(=O)O)C(=O)O` (stereo not given in full), the outcome in the data set on B16 [1], in the data set with HT-29 and in the data set with MCF7 [2] was Active. Besides, the result with 9L-2 was inactive.

Broadly, the IC50 is the concentration that gives 50% inhibition.
